The results in this text go back to ChEMBL document CHEMBL4007491, “Structure-based drug design of novel ASK1 inhibitors using an integrated lead optimization strategy” (Bioorg Med Chem Lett, 2017).

The target of series [1] is T1, Tyrosine-protein kinase Mer (Homo sapiens, UniProt Q12866).
T1 sequence (Q12866 whole entry): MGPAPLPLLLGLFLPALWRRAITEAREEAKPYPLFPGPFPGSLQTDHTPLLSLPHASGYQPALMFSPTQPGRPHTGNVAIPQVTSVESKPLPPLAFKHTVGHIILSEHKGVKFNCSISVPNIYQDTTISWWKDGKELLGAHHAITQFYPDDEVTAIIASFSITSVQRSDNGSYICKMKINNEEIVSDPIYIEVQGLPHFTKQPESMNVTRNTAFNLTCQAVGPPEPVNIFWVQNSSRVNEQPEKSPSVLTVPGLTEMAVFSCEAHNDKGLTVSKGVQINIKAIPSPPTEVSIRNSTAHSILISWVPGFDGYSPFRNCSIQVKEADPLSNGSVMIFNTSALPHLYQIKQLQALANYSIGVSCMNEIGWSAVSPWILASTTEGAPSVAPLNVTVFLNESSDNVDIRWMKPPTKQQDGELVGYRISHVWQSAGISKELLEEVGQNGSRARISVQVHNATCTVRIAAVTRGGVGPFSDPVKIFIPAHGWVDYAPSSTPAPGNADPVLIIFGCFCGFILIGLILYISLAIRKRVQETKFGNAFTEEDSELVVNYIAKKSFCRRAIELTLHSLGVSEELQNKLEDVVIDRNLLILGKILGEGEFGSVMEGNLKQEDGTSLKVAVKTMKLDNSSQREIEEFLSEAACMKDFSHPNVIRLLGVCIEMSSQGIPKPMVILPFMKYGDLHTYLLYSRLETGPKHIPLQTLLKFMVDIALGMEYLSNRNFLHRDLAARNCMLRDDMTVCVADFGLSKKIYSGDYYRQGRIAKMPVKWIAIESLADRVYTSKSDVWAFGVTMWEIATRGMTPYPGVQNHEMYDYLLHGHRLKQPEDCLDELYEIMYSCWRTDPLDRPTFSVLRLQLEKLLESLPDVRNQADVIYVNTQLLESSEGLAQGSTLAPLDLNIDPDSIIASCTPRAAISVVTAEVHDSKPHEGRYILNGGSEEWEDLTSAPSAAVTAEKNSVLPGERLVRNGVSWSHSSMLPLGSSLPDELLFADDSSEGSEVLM
Description: Inhibition of recombinant human GST-tagged MER cytoplasmic domain expressed in baculovirus expression system.

Series [2] addresses Cyclin-dependent kinase 2 (Homo sapiens, UniProt P24941). The series is described as follows: Inhibition of CDK2 (unknown origin).
The target in series [3] is 5'-AMP-activated protein kinase catalytic subunit alpha-1 (Homo sapiens, UniProt Q13131). The series is described as follows: Inhibition of PRKAA1 (unknown origin).
Chain of 5'-AMP-activated protein kinase catalytic subunit alpha-1 (Q13131 whole entry): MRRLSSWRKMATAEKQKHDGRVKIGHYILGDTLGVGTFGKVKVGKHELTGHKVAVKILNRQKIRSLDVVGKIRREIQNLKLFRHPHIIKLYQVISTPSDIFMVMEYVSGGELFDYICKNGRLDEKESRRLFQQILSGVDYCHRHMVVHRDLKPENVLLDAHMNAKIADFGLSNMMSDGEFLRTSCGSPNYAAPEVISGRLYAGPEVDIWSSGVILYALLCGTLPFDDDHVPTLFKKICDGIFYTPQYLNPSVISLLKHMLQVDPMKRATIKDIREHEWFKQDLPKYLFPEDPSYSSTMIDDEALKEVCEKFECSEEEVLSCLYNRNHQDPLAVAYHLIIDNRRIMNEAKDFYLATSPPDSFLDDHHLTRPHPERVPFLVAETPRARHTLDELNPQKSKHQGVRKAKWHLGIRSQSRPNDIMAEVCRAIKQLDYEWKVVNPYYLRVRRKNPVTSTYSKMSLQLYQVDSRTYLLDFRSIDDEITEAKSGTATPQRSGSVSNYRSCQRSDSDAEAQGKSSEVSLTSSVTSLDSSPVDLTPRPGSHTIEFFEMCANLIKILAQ
The target of another series is CYP2C9 (Homo sapiens, UniProt P11712). The series is described as follows: Inhibition of CYP2C9 (unknown origin) at 10 uM relative to control. The series is classed as ADME.
Chain of CYP2C9 (P11712 whole entry): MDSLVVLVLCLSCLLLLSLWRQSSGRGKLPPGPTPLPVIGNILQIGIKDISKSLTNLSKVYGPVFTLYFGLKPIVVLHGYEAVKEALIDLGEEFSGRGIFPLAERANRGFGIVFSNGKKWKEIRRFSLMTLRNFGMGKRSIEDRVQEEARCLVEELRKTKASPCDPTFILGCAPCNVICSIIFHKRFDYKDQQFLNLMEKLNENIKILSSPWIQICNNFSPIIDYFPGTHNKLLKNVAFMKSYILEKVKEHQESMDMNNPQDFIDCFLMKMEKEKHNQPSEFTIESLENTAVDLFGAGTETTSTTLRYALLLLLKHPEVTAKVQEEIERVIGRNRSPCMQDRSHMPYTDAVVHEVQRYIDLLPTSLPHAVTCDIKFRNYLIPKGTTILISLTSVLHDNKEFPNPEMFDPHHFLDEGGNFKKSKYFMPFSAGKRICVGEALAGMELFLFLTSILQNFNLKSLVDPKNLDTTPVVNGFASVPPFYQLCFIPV

One may read the IC50 as the concentration that inhibits the measured activity by half. In general, inhibition refers to the share of the control response that was lost under treatment.

As to `COCCn1cc(NC(=O)c2csc(-c3nncn3C(C)C)n2)cn1`, the IC50 in series [1] was 7590 nM; in series [2], 1000 nM; in series [3] it was 794 nM. In addition, the inhibition at 10 µM at CYP2C9 came to 36%.
